Reference: PMC7699524, “Assessing the Intestinal Permeability and Anti-Inflammatory Potential of Sesquiterpene Lactones from Chicory” (Nutrients, 2020)

Experiments:
Caco-2 cells = experiment: Permeability across Caco-2 monolayer (apical concentration by LC-MS); details: Caco-2 monolayer
Procedure: For intestinal permeability assessments of pure SLs, Caco-2 cells were seeded in 12 mm Transwell® inserts (polyester membrane, 0.4 μm pore size, Corning Costar Corp., NY, USA) at a density of 1.0 × 10^5 cell/cm^2. Cells were allowed to grow and differentiate to a confluent monolayer for 21 days postseeding with medium change three times per week. This mimics the apical and basolateral sides of the intestinal mucosa. Before the permeability assay, cells were washed with Hank’s balanced salt solution (HBSS) (Gibco, Life Technologies, Paisley, UK), and pure SLs in HBSS were added to the apical side for 4 h at the noncytotoxic concentration of 10 μM, while the basolateral well was replaced by HBSS. The fluorescent marker fluorescein (2.7 µM) was used as control, having been submitted to the same protocol as the SLs. Cells were submitted to an orbital shaking of 125 rpm (Ohaus, Shanghai, China), and samples from the basolateral side were collected after 15 min, 30 min, and then every hour until the end of the assay, and each time the retrieved volume was replaced by fresh HBSS to maintain sink conditions. After the 4 h assay, both apical and basolateral contents were collected, the cells were washed with PBS followed by culture medium, and culture medium was added to both compartments for 24 h to assess monolayer recovery. All samples were stored at −80 °C until LC-MS analysis.
Transepithelial electrical resistance (TEER) of all monolayers was monitored before and during experiments, and 24 h after the assay, to ensure their integrity using an EVOM™ voltmeter (WPI, Berlin, Germany). Before each experiment, TEER was measured and only monolayers with a TEER value higher than 500 Ω cm^2 were used. Experiments were done in triplicate.
Ultra High Performance Liquid Chromatography (UHPLC) separations were performed with a Dionex U3000 UHPLC coupled with a U3000 Photo Diode Array (PDA) and an LTQ-Orbitrap XL Mass Spectrometry (MS) system (Thermo-Fisher Ltd., Hemel Hempstead, UK). The MS and PDA systems were tuned and calibrated according to the manufacturers recommended procedures. The UHPLC was operated under Xcalibur and Chromeleon software (Thermo-Fisher Ltd. UK). A flow rate of 300 µL/min was applied, the column and guard (Synergi C18 Hydro-RP 80 Ä, 150 × 2.0 mm, 4 µm particle size; Phenomenex Ltd. U.K.) were maintained at a temperature of 30 °C. The solvent system compositions were, A: HPLC grade water (J.T. Baker, Scientific Chemical Supplies Ltd. UK), and solvent B: HPLC grade acetonitrile (J.T. Baker, Scientific Chemical Supplies Ltd. UK), both acidified with 0.1% MS grade formic acid (Ultima, Fisher Scientific, UK). A sample injection volume of 10 µL was employed in partial-loop mode. The gradient program was as follows: hold 2% B 0–2 min, 2–5% B 2–5 min, 5–45% B 5–25 min, 45–100% B 25–35 min, hold 100% B 35–38 min, 100–2% B 38–39 min, hold 2% B 39–44 min. Autosampler syringe and line washes were performed with 2:8 HPLC grade water: acetonitrile (J.T. Baker, Scientific Chemical Supplies Ltd., UK). The HPLC column eluent was first monitored by the U3000 PDA detector where spectra were collected in wavelength/absorbance mode from 200–600 nm. Additionally, three channel set points were employed, Channel A 210 nm, Channel B 260 nm, Channel C 320 nm. Spectra were collected with a filter bandwidth of 8 nm and wavelength step of 1 nm, the scan rate was 5 Hz.
The UHPLC eluent was next transferred to a Thermo LTQ-Orbitrap XL mass spectrometry system operated under Xcalibur (Thermo-Fisher Ltd. UK). For the first two minutes of analysis the UHPLC eluent was diverted to waste, from two to 39 min the eluent was directed to the MS detector, before being diverted back to waste between 39–44 min. Mass spectra were collected in centroid mode with a primary full scan event (m/z 100–1000) at a mass resolution of 30,000 (FWHM defined at m/z 400) within the Fourier Transform (FT) detector.

calcineurin-Crz1 pathway = experiment: β-Galactosidase CDRE-lacZ yeast reporter assay of Crz1 activation; type: cell-based, S. cerevisiae; details: Saccharomyces cerevisiae
Procedure: Cultures at OD600= 0.5 ± 0.05 were diluted to OD600= 0.1 ± 0.01, transferred to 96-well microplate and challenged with the highest nontoxic concentration previously determined for each compound to investigate their putative inhibitory effect towards the calcineurin-responsive zinc finger (Crz1) activation. Measurements of β-galactosidase activity driven by the calcineurin-dependent response element (CDRE) regulated lacZ reporter gene allowed the quantitative assessment of the capacity of each compound to inhibit the activation of Crz1. FK506 (Cayman Chemicals, Ann Arbor, MI, USA) was used as a positive control at a final concentration of 12.5 μM. After 90 min of incubation with the respective compounds at 30 °C under orbital shaking, MnCl2 (Merck, Saint Louis, MO, USA) was added at a final concentration of 3 mM. After 90 min of incubation under the same conditions, OD600 of cultures were recorded, 10 μL of cell suspensions were transferred to a new 96-well plate followed by addition of 20 μL Y-PER cell lysis reagent (ThermoFisher Scientific), and the plates were incubated for 20 min at 37 °C without agitation. 240 μL of LacZ buffer (8.5 g/L Na2HPO4 (ROTH), 5.5 g/L NaH2PO4.H2O (Merck), 0.75 g/L KCl (Panreac), 0.246 g/L MgSO4.7H2O (Merck) containing […] o-nitrophenyl β-D-galactopyranoside (ONPG) (Sigma–Aldrich®—Poole, Dorset, UK) was added to each well, and plates were incubated at 30 °C for 2 h. The OD420 and OD550 were monitored using a Biotek Power Wave XS Microplate Spectrophotometer (Biotek® Instruments, Winooski, VT, USA). The results were expressed as Miller units (MU), applying the following equation, where V = volume of culture assayed in mL; t = reaction time in minutes: Miller unit = 1000 × (OD420 − 1.75 × OD550)/(t × V × OD600)(1)

Crz1-GFP = experiment: Fluorescence microscopy of Crz1-GFP nuclear accumulation; type: cell-based, S. cerevisiae; details: 3.6 µM, then 3 mM MnCl2; YAA3 cells; MnCl2 only 55.6%
Procedure: YAA3 cells were treated with 3.6 µM of 11β,13-dihydrolactucin or 12.5 µM of FK506 for 90 min, followed by incubation with or without 3 mM MnCl2 for further 90 min. On the last 10 min of incubation, 10 µg/mL of Hoechst 33,342 (Sigma) nuclear dye were added. Cells were washed and resuspended in 5 µL of 1,4-Diazabicyclo[2.2.2]octane (DABCO, triethylenediamine) DABCO solution (200 mM DABCO in 75% (v/v) glycerol, 25% (v/v) PBS) (Sigma-Aldrich). The preparations were monitored for GFP fluorescence as previously described using a Zeiss Imager Z2 (Zeiss, Germany) fluorescence microscope. Photographs were taken with an Axiocam 506 mono (Zeiss). Three images were taken and analyzed for each sample, each one containing ≈ 600 individual cells. Images were analyzed using Fiji-ImageJ 1.53f (NIH, Bethesda, MD, USA).

[1] = system: Crz1 target genes PMR1 and GSC2; experiment: qRT-PCR of Crz1 target genes; type: cell-based, S. cerevisiae; details: 3.6 µM, 3 mM MnCl2, qPCR
Procedure: The qRT-PCR analyses were performed as previously described. Briefly, total RNA was extracted using the RNeasy Mini kit (QIAGEN). After cleaning, 4 μg of total RNA was used for reverse-transcription with SuperScript™ II Reverse Transcriptase (Invitrogen). The qRT-PCR was performed in a QuantStudio™ 5 (Applied Biosystems), using SensiFAST™ SYBR Lo-ROX Kit (Bioline) to evaluate expression of the PMR1 (‘5-[…]-3′; 5′-[…]-3′) (GeneID: 852709), and GSC2 (5′-[…]-3′; 5′-[…]-3′) (GeneID: 852920) genes. Both ACT1 (5′-GATCATTGCTCCTCCAGAA-3′; 5′-[…]-3′) and PDA1 (5′-[…]-3′; 5′-[…]-3′) were used as reference genes. The results were expressed as relative mRNA expression levels relative to activation condition (mRNA levels a.u.) of at least three independent biological replicates ± SEM.

## CC1=C2C(=O)C=C(CO)C2C2OC(=O)C(C)C2C(O)C1 (stereo not drawn) [11β,13-dihydrolactucin]
Caco-2 cells; 10 µM apical, 4 h vs t = 0 h
  % of Decrease in SL Concentration in the Apical Side (t = 4h): 8.7%
Caco-2 cells; LC-MS
  SL conjugates with cysteine in the apical side after 4 h: not detected
Caco-2 cells; SL added at 10 µM apical, after 4 h
  Concentration of SL (Apical Side) t = 4 h: 8.3 ± 1.4 µM
Caco-2 cells; SL added at 10 µM apical, before experiment
  Concentration of SL (Apical Side) t = 0 h: 9.1 ± 1.3 µM
calcineurin-Crz1 pathway; read-out: Calcineurin-Crz1 Inhibition (%) ± SD, 12.5 µM, MnCl2 3 mM activation, strain YAA5
  inhibition at 12.5 µM: 43 ± 8%
calcineurin-Crz1 pathway; read-out: IC50 for Crz1 inhibition
  IC50: 2.35 ± 1.45 µM
calcineurin-Crz1 pathway; read-out: Inhibition of Crz1 activation (dose response assay), 3.6 µM, MnCl2 activation
  inhibition at 3.6 µM: ≤ 54%
Crz1-GFP
  Percentage of cells with nuclear Crz1-GFP: 21%
[1]
  GSC2 mRNA expression: downregulated
  PMR1 mRNA expression: downregulated
